Target: T1, α4β7 integrin (Homo sapiens, UniProt P13612+P26010)
T1 construct: a cell line RPMI-8866, which is known to express α4β7 integrin; endogenous in cells; host or cells: RPMI-8866 (human B cell line)
T1 sequence (P13612 34-1032): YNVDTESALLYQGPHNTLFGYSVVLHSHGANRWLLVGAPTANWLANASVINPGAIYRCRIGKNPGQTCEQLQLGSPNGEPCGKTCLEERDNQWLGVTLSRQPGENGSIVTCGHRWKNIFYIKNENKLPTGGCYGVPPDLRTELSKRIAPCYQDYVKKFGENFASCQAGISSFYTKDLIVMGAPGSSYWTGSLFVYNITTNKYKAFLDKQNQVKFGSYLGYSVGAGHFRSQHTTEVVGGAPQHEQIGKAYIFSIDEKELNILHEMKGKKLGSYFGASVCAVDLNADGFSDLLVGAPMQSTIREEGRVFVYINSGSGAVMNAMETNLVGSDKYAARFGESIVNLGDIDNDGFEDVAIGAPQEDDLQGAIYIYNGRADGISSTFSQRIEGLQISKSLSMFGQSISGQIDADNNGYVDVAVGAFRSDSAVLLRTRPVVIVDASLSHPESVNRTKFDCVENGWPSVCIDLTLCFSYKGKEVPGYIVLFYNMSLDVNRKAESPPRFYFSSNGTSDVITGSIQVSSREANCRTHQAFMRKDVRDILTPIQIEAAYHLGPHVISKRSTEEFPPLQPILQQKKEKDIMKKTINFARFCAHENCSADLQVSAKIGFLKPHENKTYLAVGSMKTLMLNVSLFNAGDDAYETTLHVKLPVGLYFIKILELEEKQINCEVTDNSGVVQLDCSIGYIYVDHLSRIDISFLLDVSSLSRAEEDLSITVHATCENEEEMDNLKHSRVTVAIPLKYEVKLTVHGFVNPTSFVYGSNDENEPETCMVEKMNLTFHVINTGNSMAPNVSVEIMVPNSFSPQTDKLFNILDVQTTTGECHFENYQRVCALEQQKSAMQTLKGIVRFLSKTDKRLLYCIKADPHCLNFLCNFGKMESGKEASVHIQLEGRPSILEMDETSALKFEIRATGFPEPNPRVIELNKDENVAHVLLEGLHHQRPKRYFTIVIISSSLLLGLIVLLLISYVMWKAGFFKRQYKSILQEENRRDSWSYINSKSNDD
T1 sequence (P26010 20-798): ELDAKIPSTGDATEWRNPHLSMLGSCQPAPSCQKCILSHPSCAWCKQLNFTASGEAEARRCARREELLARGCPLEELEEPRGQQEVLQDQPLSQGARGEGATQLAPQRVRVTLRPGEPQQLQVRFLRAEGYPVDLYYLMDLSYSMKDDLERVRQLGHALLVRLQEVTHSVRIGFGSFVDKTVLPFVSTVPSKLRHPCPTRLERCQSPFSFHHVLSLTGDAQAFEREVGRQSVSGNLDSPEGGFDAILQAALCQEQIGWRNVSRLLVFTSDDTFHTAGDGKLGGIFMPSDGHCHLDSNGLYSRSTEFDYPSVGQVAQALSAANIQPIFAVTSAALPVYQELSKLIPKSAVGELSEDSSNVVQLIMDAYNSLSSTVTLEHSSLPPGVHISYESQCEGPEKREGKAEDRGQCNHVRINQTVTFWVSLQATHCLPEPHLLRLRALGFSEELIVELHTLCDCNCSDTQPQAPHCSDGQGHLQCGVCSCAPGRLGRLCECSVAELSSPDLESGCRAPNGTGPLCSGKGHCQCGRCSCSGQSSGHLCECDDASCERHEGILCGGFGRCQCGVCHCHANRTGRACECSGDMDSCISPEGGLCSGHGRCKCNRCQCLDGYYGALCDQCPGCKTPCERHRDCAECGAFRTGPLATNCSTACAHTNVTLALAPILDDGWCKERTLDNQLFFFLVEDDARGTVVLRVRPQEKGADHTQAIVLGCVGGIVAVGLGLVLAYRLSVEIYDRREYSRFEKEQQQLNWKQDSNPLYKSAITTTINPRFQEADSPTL
Experiment: MAdCAM-1/α4β7 integrin binding inhibitory activity evaluation test in presence of serum
Assay type: cell-based
Details: RPMI-8866 cells, recombinant mouse MAdCAM-1/Fc, 50% human serum; read-out: α4β7 Serum Added IC50
Protocol: (3) MAdCAM-1/α4β7 Integrin Binding Inhibitory Activity Evaluation Test in Presence of Serum (1)
Each test substance was measured in terms of an ability to inhibit the MAdCAM-1 binding of a human B cell line, namely, a cell line RPMI-8866, which is known to express α4β7 integrin.
A solution of recombinant mouse MAdCAM-1/Fc (R&D Systems, Inc.) (1 μg/mL) diluted with a buffer A (carbonate buffer, pH 9.6) was added in an amount of 50 μL/well to a 96-well microtiter plate, followed by incubation at 4° C. overnight. After the plate was washed with PBS once, 150 μL/well of Block Ace (Snow Brand Milk Products Co., Ltd.) was added, followed by incubation at room temperature for 2 hours. After removal, the plate was washed with PBS once.
Then, 100 μL of the RPMI-8866 cells (2×10^6 cells/mL) and 100 of the test substance at each of various concentrations diluted with a binding buffer (DMEM containing 40 mM HEPES, 0.2% BSA, and 4 mM MnCl2) were added to the plate coated with the MAdCAM-1/Fc (5×10^5 cells/well) such that 50% human serum was contained at the final concentration. Then, incubation was allowed to proceed at 30° C. for 15 to 60 minutes. After the cells were bound to the wells, the plate was washed with PBS to remove unbound cells. A buffer C (PBS containing 1.5% Triton X-100) was added in an amount 50 μL/well to the plate to lyse the bound RPMI-8866 cells. After 30 μL of a substrate buffer (Promega, CytoTox 96 Non-Radioactive Cytotoxicity Assay) was added to 30 μL of the cell lysate, a reaction was allowed to proceed at room temperature in the dark for 30 minutes. After 30 μL of a stop solution (Promega, CytoTox 96 Non-Radioactive Cytotoxicity Assay) was added to each, and then an absorbance at 490 nm was measured using a plate reader. The absorbance obtained here represents a detection result of an activity of lactate dehydrogenase (LDH) eluted in the supernatant of each well, that is, the absorbance is proportional to the number of RPMI-8866 cells bound to the MAdCAM-1 and thus remaining on the plate. The test was performed in duplicate. Provided that the absorbance of the well containing no test substance was 100%, a cell binding rate with the test substance at each of the various concentrations was figured out, and a concentration IC50 which brought about 50% binding inhibition was calculated.

IC50	Compound
18 nM	COc1cc2c(=O)n(-c3ccc(C[C@H](NC(=O)c4cc(F)c(NS(=O)(=O)c5ccc(NC(=O)C(C)(C)C)cc5)cc4F)C(=O)O)cc3)c(=O)n(C)c2cn1 [Compound A36]
5 nM	Cn1c(=O)n(-c2ccc(C[C@H](NC(=O)c3cc(F)c(NS(=O)(=O)c4ccc(NC(=O)C(C)(C)C)cn4)cc3F)C(=O)O)cn2)c(=O)c2ccncc21 [Compound A31]
24 nM	Cc1c(C)n(C)c(=O)n(-c2ccc(C[C@H](NC(=O)c3cc(F)c(NS(=O)(=O)c4ccc(-n5ccc(C6CCOCC6)cc5=O)cc4)cc3F)C(=O)O)cc2)c1=O [Compound A34]
3.7 nM	Cc1c(C)n(C)c(=O)n(-c2ccc(C[C@H](NC(=O)c3cc(F)c(NS(=O)(=O)c4ccc(NC(=O)C(C)(C)C)cc4)cc3F)C(=O)O)cc2)c1=O [Compound A8]
1.9 nM	CN1CCc2c(n(C)c(=O)n(-c3ccc(C[C@H](NC(=O)c4cc(F)c(NS(=O)(=O)c5ccc(NC(=O)C(C)(C)C)cc5)cc4F)C(=O)O)cc3)c2=O)C1 [Compound A41]
33 nM	Cn1ccc(=O)n(-c2ccc(C[C@H](NC(=O)c3cc(F)c(NS(=O)(=O)c4ccc(NC(=O)C5(C(F)(F)F)CC5)cc4)cc3F)C(=O)O)cn2)c1=O [Compound A55]
600 nM	Cc1c(C)n(C)c(=O)n(-c2ccc(C[C@H](NC(=O)c3cc(F)c(NS(=O)(=O)c4ccc(N(C)C(=O)C(C)(C)C)cc4)cc3F)C(=O)O)cc2)c1=O [Compound A35]
9.8 nM	Cn1ccc(=O)n(-c2ccc(C[C@H](NC(=O)c3cc(F)c(NS(=O)(=O)c4ccc(NC(=O)C(C)(C)C)cc4)cc3F)C(=O)O)cc2)c1=O [Compound A42]
10 nM	Cn1c(=O)n(-c2ccc(C[C@H](NC(=O)c3cc(F)c(NS(=O)(=O)c4ccc(NC(=O)C(C)(C)C)cc4)cc3F)C(=O)O)cc2)c(=O)c2ccncc21 [Compound A1, (2S)-2-[[4-[[4-(2,2-dimethylpropanoylamino)phenyl]sulfonylamino]-2,5-difluoro-benzoyl]amino]-3-[4-(1-methyl-2,4-dioxo-pyrido[3,4-d]pyrimidin-3-yl)phenyl]propanoic acid]
44 nM	COC1(C(=O)Nc2ccc(S(=O)(=O)Nc3cc(F)c(C(=O)N[C@@H](Cc4ccc(-n5c(=O)c6ccncc6n(C)c5=O)cc4)C(=O)O)cc3F)cc2)CC1 [Compound A16]
28 nM	Cc1cc(=O)n(-c2ccc(C[C@H](NC(=O)c3cc(F)c(NS(=O)(=O)c4ccc(NC(=O)C(C)(C)C)cc4)cc3F)C(=O)O)nc2)c(=O)n1C [Compound A72]
1.7 nM	Cn1c2c(c(=O)n(-c3ccc(C[C@H](NC(=O)c4cc(F)c(NS(=O)(=O)c5ccc(NC(=O)C(C)(C)C)cc5)cc4F)C(=O)O)cc3)c1=O)COCC2 [Compound A33]
8.4 nM	Cc1cn(C)c(=O)n(-c2ccc(C[C@H](NC(=O)c3cc(F)c(NS(=O)(=O)c4ccc(NC(=O)C(C)(C)C)cc4)cc3F)C(=O)O)cn2)c1=O [Compound A54]
43 nM	Cc1c(C)n(C)c(=O)n(-c2ccc(C[C@H](NC(=O)c3cc(F)c(NS(=O)(=O)c4ccc(NC(=O)C5(c6ccccc6)CC5)cc4)cc3F)C(=O)O)cc2)c1=O [Compound A30]
67 nM	COC1(C(=O)Nc2ccc(S(=O)(=O)Nc3cc(F)c(C(=O)N[C@@H](Cc4ccc(-n5c(=O)c(C)c(C)n(C)c5=O)cc4)C(=O)O)cc3F)cc2)CC1 [Compound A17]

The remaining lines, values behind:

Compound	IC50
Cc1c(C)n(C)c(=O)n(-c2ccc(C[C@H](NC(=O)c3cc(F)c(NS(=O)(=O)c4ccc(NC(=O)C5(C(F)(F)F)CC5)cc4)cc3F)C(=O)O)cc2)c1=O [Compound A20]	17 nM
Cc1cn(C)c(=O)n(-c2ccc(C[C@H](NC(=O)c3cc(F)c(NS(=O)(=O)c4ccc(NC(=O)C5(C#N)CC5)cc4)cc3F)C(=O)O)cn2)c1=O [Compound A60]	52 nM
CC(=O)Nc1ccc(S(=O)(=O)Nc2cc(F)c(C(=O)N[C@@H](Cc3ccc(-n4c(=O)c5ccncc5n(C)c4=O)cc3)C(=O)O)cc2F)cc1 [Compound A2]	36 nM
Cn1c(=O)n(-c2ccc(C[C@H](NC(=O)c3cc(F)c(NS(=O)(=O)c4ccc(NC(=O)NC(C)(C)C)cc4)cc3F)C(=O)O)cc2)c(=O)c2ccncc21 [Compound A5]	70 nM
Cc1c(C)n(C)c(=O)n(-c2ccc(C[C@H](NC(=O)c3cc(F)c(NS(=O)(=O)c4ccc(NC(=O)C5(O)CC5)cc4)cc3F)C(=O)O)cc2)c1=O [Compound A22]	25 nM
Cn1cc(C(F)(F)F)c(=O)n(-c2ccc(C[C@H](NC(=O)c3cc(F)c(NS(=O)(=O)c4ccc(NC(=O)C(C)(C)C)cc4)cc3F)C(=O)O)cn2)c1=O [Compound A67]	14 nM
Cn1c(C(F)(F)F)cc(=O)n(-c2ccc(C[C@H](NC(=O)c3cc(F)c(NS(=O)(=O)c4ccc(NC(=O)C(C)(C)C)cc4)cc3F)C(=O)O)cn2)c1=O [Compound A66]	25 nM
Cn1ccc(=O)n(-c2ccc(C[C@H](NC(=O)c3cc(F)c(NS(=O)(=O)c4ccc(NC(=O)C5(C#N)CC5)cc4)cc3F)C(=O)O)cn2)c1=O [Compound A59]	93 nM
Cc1cn(C)c(=O)n(-c2ccc(C[C@H](NC(=O)c3cc(F)c(NS(=O)(=O)c4ccc(NC(=O)C5(C(F)(F)F)CC5)cc4)cc3F)C(=O)O)cn2)c1=O [Compound A56]	19 nM
Cc1c(C)n(C)c(=O)n(-c2ccc(C[C@H](NC(=O)c3cc(F)c(NS(=O)(=O)c4ccc(NC(=O)C5CCOCC5)cc4)cc3F)C(=O)O)cc2)c1=O [Compound A15]	14 nM
Cn1c(=O)n(-c2ccc(C[C@H](NC(=O)c3cc(F)c(NS(=O)(=O)c4ccc(NC(=O)c5ccncc5)cc4)cc3F)C(=O)O)cc2)c(=O)c2ccncc21 [Compound A7]	28 nM
Cc1c(C)n(C(C)C)c(=O)n(-c2ccc(C[C@H](NC(=O)c3cc(F)c(NS(=O)(=O)c4ccc(NC(=O)C(C)(C)C)cc4)cc3F)C(=O)O)cc2)c1=O [Compound A48]	22 nM
